Measured values published in patent US20040254128A1, “Treatment and prevention of heat shock protein-associated diseases and conditions” (priority 2001, published 2004).
Like-named read-outs stand apart in the source and are kept apart here.

What was measured:
[1] = Pharmacokinetics in plasma after 72 hours intravenous infusion; details: beagle, dog
Method: Plasma levels of E5564 were determined during and after 72 hours of intravenous infusion of 0.03 mg/kg/hr E5564 (◯, ●), 0.1 mg/kg/hr E5564 (□, ▪), and 1 mg/kg/hr E5564 (Δ, ▴) into female (closed symbols) or male (open symbols) beagle dogs. At the indicated times, blood was drawn and analyzed for E5564 concentration by extraction and analysis by HPLC. Each value represents the mean±S.E.M. of three animals.

[2] = Pharmacokinetics in plasma after single bolus intravenous injection; details: dog
[3] = test system: LPS endotoxin (Escherichia coli 0111:B4)-induced plasma TNF-α; details: for TNF-α at 1 hr: plasma 1 hr after LPS; for TNF-α at 2 hr: plasma 2 hr after LPS
Method: LPS endotoxin (300 ng/kg) was injected intravenously into untreated dogs (◯) or simultaneously with 0.1 mg/kg E5564 (Δ) one hour after E5564 administration (□) or three hours after E5564 administration (●). Blood was drawn and analyzed for TNF-α concentration by bioassay, as is described in the Appendix, below. Each value represents the mean±S.E.M. of four animals.
In both assays, activity of the antagonist is quantitated by analysis of the cytokines induced by LPS administration.
Escherichia coli LPS (Serotype 0111:B4; phenol extracted, Cat. # L-2630) was purchased from Sigma Chem. Co. Ltd., St. Louis, Mo., USA. Lyophylized E5564 was solubilized in 5 ml of sterile water (Otsuka Pharm. Co. Ltd., Tokyo, Japan). LPS was weighed to an accuracy of 1/10 mg and solubilized in 5% glucose (Otsuka Pharm. Co. Ltd., Tokyo, Japan). The LPS solution was sonicated with a bath-type sonicator for 15 minutes after which aliquots were immediately prepared and stored at −20° C. Prior to use, the solution was sonicated for one or two minutes, and then dilutions were prepared in 5% glucose.
Nine month-old beagles were obtained from Kawashima-shoji Co. Ltd., Gifu, Japan) and housed in stainless steel wire cages (W 800 mm×D 680 mm×H 680 mm; one dog per cage) in a room with a constant temperature of 20-24° C., humidity of 45-65%, and 12 hour light-dark cycle. The animals were provided with pellet food (DS, Oriental Yeast Co., Tokyo, Japan) and water ad libitum. LPS endotoxin (300 ng/0.1 ml/kg) was injected into the vein of the right foreleg at a rate of 1-2 ml/min, and E5564 was injected into the vein of the left foreleg at a rate of 10-20 ml/min.
Immediately before or 1, 2, or 4 hours after intravenous injection of LPS and E5564, 1.5 ml of blood was drawn from the left cephalic vein. One milliliter was transferred into a tube containing 10 U of heparin (Mochida Pharm. Co. Ltd., Tokyo, Japan), centrifuged (2000×g, 5 minutes, 4° C.), and the plasma was used for bioassays for TNF-α and IL-6.
Aliquots of the plasma were tested for TNF in a bioassay based on the TNF-dependent cell death of L-P3 cells in the presence of actinomycin D. The L-P3 cell line is more sensitive to TNF-induced cell death than the L-929 cell line that is more commonly used.

[4] = 0.1 mg/kg E5564 iv one hour before LPS 300 ng/kg iv
[5] = 0.1 mg/kg E5564 iv three hours before LPS 300 ng/kg iv

CCCCCC/C=C\CCCCCCCCCC(=O)N[C@H]1[C@H](OC[C@H]2O[C@H](OP(=O)(O)O)[C@H](NC(=O)CC(=O)CCCCCCCCCCC)[C@@H](OCCCCCCCCCC)[C@@H]2O)O[C@H](COC)[C@@H](OP(=O)(O)O)[C@@H]1OCC[C@@H](CCCCCCC)OC [E5564, α-D-Glucopyranose, 3-O-decyl-2-deoxy-6-O-[2-deoxy-3-O-[(3R)-3-methoxydecyl)-6-O-methyl-2-[[(11Z)-1-oxo-11-octadecenyl)amino]-4-O-phosphono-β-D-glucopyranosyl]-2-[(1,3-dioxotetradecyl)amino]-, 1-(dihydrogen phosphate)]
AUC(0-t) ([1]; female, 0.1 mg/kg): 790 ± 51 µg·h/mL
concentration at 72 h ([1]; female, 0.1 mg/kg): 10.3 ± 0.93 µg/mL
half-life ([1]; female, 0.1 mg/kg): 40.9 ± 9.5 h
AUC(0-t) ([1]; female, 0.3 mg/kg): 2620 ± 737 µg·h/mL
concentration at 72 h ([1]; female, 0.3 mg/kg): 32.4 ± 5.72 µg/mL
half-life ([1]; female, 0.3 mg/kg): 38 ± 11.6 h
AUC(0-t) ([1]; female, 1 mg/kg): 29600 ± 1510 µg·h/mL
concentration at 72 h ([1]; female, 1 mg/kg): 394 ± 14.2 µg/mL
half-life ([1]; female, 1 mg/kg): 32 ± 2.8 h
AUC(0-t) ([1]; male, 0.1 mg/kg): 1070 ± 139 µg·h/mL
concentration at 72 h ([1]; male, 0.1 mg/kg): 13.1 ± 1.22 µg/mL
half-life ([1]; male, 0.1 mg/kg): 38.4 ± 4.5 h
AUC(0-t) ([1]; male, 0.3 mg/kg): 3310 ± 485 µg·h/mL
concentration at 72 h ([1]; male, 0.3 mg/kg): 41.3 ± 7.18 µg/mL
half-life ([1]; male, 0.3 mg/kg): 39.9 ± 11.2 h
AUC(0-t) ([1]; male, 1 mg/kg): 27100 ± 5740 µg·h/mL
concentration at 72 h ([1]; male, 1 mg/kg): 366 ± 69.3 µg/mL
half-life ([1]; male, 1 mg/kg): 35.1 ± 8.7 h
AUC ([2]; 0.1 mg/kg): 71.8 µg·h/mL
half-life ([2]; 0.1 mg/kg): 41.7 ± 2.7 h
AUC ([2]; 0.3 mg/kg): 271 ± 28.3 µg·h/mL
half-life ([2]; 0.3 mg/kg): 50.4 ± 2.2 h
AUC ([2]; 1 mg/kg): 744 µg·h/mL
half-life ([2]; 1 mg/kg): 46.4 ± 2.7 h
Activity of the endotoxin antagonist, % of its original activity ([3]; 0.1 mg/kg E5564, LPS administered three hours after E5564 dose): about 48%
TNF-α at 1 hr [3, 4]: 0 units/ml
TNF-α at 2 hr [3, 4]: 0 units/ml
TNF-α at 1 hr ([3]; 0.1 mg/kg E5564 iv simultaneously with LPS 300 ng/kg iv, n=4 dogs): 0 units/ml
TNF-α at 2 hr ([3]; 0.1 mg/kg E5564 iv simultaneously with LPS 300 ng/kg iv): 0 units/ml
TNF-α at 1 hr [3, 5]: 1353 ± 340 units/ml
TNF-α at 2 hr [3, 5]: 190 ± 113 units/ml
